In US7105562B2, “Geometrically restricted 3-cyclopentylidene-1,3-dihydroindol-2-ones as potent protein tyrosine kinase inhibitors” (Sugen, Inc., priority 2003, dated 2006):

Biological target: FGFR1 (Homo sapiens, UniProt P11362)
Assay: FGFR1 Bioassay (in vitro kinase activity, ELISA)
Format: biochemical
Settings: purified GST-FGFR1, poly(Glu-Tyr) substrate, read-out: FGFR IC50
Description: This assay is used to measure the in vitro kinase activity of FGF1-R in an ELISA assay.
1. Costar 96-well ELISA plates (Corning Catalog # 3369).
2. Poly(Glu-Tyr) (Sigma Catalog # P0275).
4. 50 mM Hepes Buffer Solution.
5. Blocking Buffer (5% BSA/PBS).
6. Purified GST-FGFR1 (SUGEN, Inc.)
7. Kinase Dilution Buffer.
Mix 500 μl 1M Hepes (GIBCO), 20 μl 5% BSA/PBS, 10 μl 100 mM sodium orthovanadate and 50 μl 5M NaCl.
9. ATP/MnCl2 phosphorylation mix: mix 20 μL ATP, 400 μL 1 M MnCl2 and 9.56 ml dH2O.
10. NUNC 96-well V bottom polypropylene plates (Applied Scientific Catalog # AS-72092).
Add 500 μL TWEEN to 1 liter TBS.
13. Rabbit polyclonal anti-phosphotyrosine serum (SUGEN, Inc.).
14. Goat anti-rabbit IgG peroxidase conjugate (Biosource, Catalog # ALI0404).
1. Coat Costar 96 well ELISA plates with 1 μg per well Poly(Glu-Tyr) in 100 μl PBS. Store overnight at 4° C.
2. Wash coated plates once with PBS.
3. Add 150 μL of 5% BSA/PBS Blocking Buffer to each well. Incubate, with shaking, for 1 hr at room temperature.
4. Wash plate 2× with PBS, then once with 50 mM Hepes. Pat plates on a paper towel to remove excess liquid and bubbles.
5. Add 25 μL of 0.4 mM test compound in 4% DMSO or 4% DMSO alone (controls) to plate.
6. Dilute purified GST-FGFR1 in Kinase Dilution Buffer (5 ng kinase/50 ul KDB/well).
7. Add 50 μL of diluted kinase to each well.
8. Start kinase reaction by adding 25 μl/well of freshly prepared ATP/Mn++ (0.4 ml 1M MnCl2, 40 μL 10 mM ATP, 9.56 ml dH2O), freshly prepared).
9. Stop reaction with 25 μL of 0.5M EDTA.
10. Wash plate 4× with fresh TBST.
11. Make up Antibody Dilution Buffer: For 50 ml, mix 5 ml of 5% BSA, 250 μl of 5% milk and 50 μl of 100 mM sodium vanadate, bring to final volume with 0.05% TBST.
12. Add 100 μl per well of anti-phosphotyrosine (1:10000 dilution in ADB). Incubate, with shaking for 1 hr. at room temperature.
14. Add 100 μl per well of Biosource Goat anti-rabbit IgG peroxidase conjugate (1:6000 dilution in ADB). Incubate, with shaking for 1 hr. at room temperature.
15. Wash as in step 10 and then with PBS to remove bubbles and excess TWEEN.
16. Add 100 μl of ABTS/H2O2 solution to each well.
17. Incubate, with shaking, for 10 to 20 minutes. Remove any bubbles.
18. Read assay on Dynatech MR7000 ELISA reader: test filter at 410 nM, reference filter at 630 nM.

Chain of FGFR1 (P11362 22-822, species assumed): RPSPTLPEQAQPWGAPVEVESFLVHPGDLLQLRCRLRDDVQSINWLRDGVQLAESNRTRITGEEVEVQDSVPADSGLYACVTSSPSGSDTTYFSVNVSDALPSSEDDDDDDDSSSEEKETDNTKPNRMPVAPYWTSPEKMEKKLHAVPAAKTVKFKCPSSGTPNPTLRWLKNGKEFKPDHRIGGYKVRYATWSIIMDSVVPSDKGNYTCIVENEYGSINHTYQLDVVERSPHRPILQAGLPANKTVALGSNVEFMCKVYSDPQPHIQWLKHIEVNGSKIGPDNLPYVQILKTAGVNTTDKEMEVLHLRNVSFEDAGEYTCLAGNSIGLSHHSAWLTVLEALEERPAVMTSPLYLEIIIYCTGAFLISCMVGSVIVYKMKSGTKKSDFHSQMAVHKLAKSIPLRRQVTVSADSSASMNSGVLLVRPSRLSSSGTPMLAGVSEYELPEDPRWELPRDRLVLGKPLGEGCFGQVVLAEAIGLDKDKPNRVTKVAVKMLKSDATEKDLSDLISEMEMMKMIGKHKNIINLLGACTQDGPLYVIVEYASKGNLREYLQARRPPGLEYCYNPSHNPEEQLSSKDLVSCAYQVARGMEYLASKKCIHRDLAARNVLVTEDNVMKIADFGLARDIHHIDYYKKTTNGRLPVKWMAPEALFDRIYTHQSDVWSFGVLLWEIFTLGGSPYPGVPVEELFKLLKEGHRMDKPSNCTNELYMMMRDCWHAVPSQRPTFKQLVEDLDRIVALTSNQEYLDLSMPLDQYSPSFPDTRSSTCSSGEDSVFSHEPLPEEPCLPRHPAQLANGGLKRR

Row | SMILES | IC50 [nM]
1 | CCOC(=O)c1c(C)[nH]c2c1CC/C2=C1/C(=O)Nc2ccc(S(=O)(=O)NC(C)C)cc21 [Example 8, 6-[5-Isopropylsulfamoyl-2-oxo-1,2-dihydro-indol-(3Z)-ylidene]-2-methyl-1,4,5,6-tetrahydro-cyclopenta[b] pyrrole-3-carboxylic acid ethyl ester] | > 20000
2 | CCOC(=O)c1c(C)[nH]c2c1CC/C2=C1/C(=O)Nc2ccc(S(=O)(=O)Cc3c(Cl)cccc3Cl)cc21 [Example 2, 6-[5-(2,6-Dichloro-phenylmethanesulfonyl)-2-oxo-1,2-dihydro-indol-(3Z)-ylidene]-2-methyl-1,4,5,6-tetrahydro-cyclopenta[b]pyrrole-3-carboxylic acid ethyl ester] | 2500
3 | CCOC(=O)c1c(C)[nH]c2c1CC/C2=C1/C(=O)Nc2ccc(S(C)(=O)=O)cc21 [Example 6, 6-[5-Methanesulfonyl-2-oxo-1,2-dihydro-indol-(3Z)-ylidene]-2-methyl-1,4,5,6-tetrahydro-cyclopenta[b]pyrrole-3-carboxylic acid ethyl ester] | 14500
4 | COc1ccc2c(c1)NC(=O)/C2=C1/CCc2c1[nH]c(C)c2C(=O)N1CCC[C@H]1CN1CCCC1 [Example 19, 6-Methoxy-3-[2-methyl-3-((S)-2-pyrrolidin-1-ylmethyl-pyrrolidine-1-carbonyl)-4,5-dihydro-1H-cyclopenta[b]pyrrol-(6Z)-ylidene]-1,3-dihydro-indol-2-one] | 210
5 | CCOC(=O)c1c(C)[nH]c2c1CC/C2=C1/C(=O)Nc2ccc(S(=O)(=O)NC)cc21 [Example 3, 2-Methyl-6-[5-methylsulfamoyl-2-oxo-1,2-dihydro-indol-(3Z)-ylidene]-1,4,5,6-tetrahydro-cyclopenta[b]pyrrole-3-carboxylic acid ethyl ester] | 600
6 | Cc1[nH]c2c(c1C(=O)N1CCC[C@H]1CN1CCCC1)CC/C2=C1/C(=O)Nc2c(Cl)cccc21 [Example 21, 7-Chloro-3-[2-methyl-3-((S)-2-pyrrolidin-1-ylmethyl-pyrrolidine-1-carbonyl)-4,5-dihydro-1H-cyclopenta[b]pyrrol-(6Z)-ylidene]-1,3-dihydro-indol-2-one] | 1900
7 | COc1ccc(-c2ccc3c(c2)NC(=O)/C3=C2/CCc3c2[nH]c(C)c3C(=O)N2CCC[C@H]2CN2CCCC2)cc1 [Example 23, 6-(4-Methoxy-phenyl)-3-[2-methyl-3-((S)-2-pyrrolidin-1-ylmethyl-pyrrolidine-1-carbonyl)-4,5-dihydro-1H-cyclopenta[b]pyrrol-(6Z)-ylidene]-1,3-dihydro-indol-2-one] | 230
8 | COc1ccccc1-c1ccc2c(c1)NC(=O)/C2=C1/CCc2c1[nH]c(C)c2C(=O)N1CCC[C@H]1CN1CCCC1 [Example 20] | 480
9 | Cc1[nH]c2c(c1C(=O)N1CCC[C@H]1CN1CCCC1)CC/C2=C1/C(=O)Nc2ncccc21 [Example 22, 3-[2-Methyl-3-((S)-2-pyrrolidin-1-ylmethyl-pyrrolidine-1-carbonyl)-4,5-dihydro-1H-cyclopenta[b]pyrrol-(6Z)-ylidene]-1,3-dihydro-pyrrolo[2,3-b]pyridin-2-one] | 2070
10 | CNS(=O)(=O)c1ccc2c(c1)C(=C1CCCC1)C(=O)N2 [Example 15, 3-Cyclopentylidene-2-oxo-2,3-dihydro-1H-indole-5-sulfonic acid methylamide] | > 20000
11 | CCOC(=O)c1c(C)[nH]c2c1CC/C2=C1/C(=O)Nc2ccc(S(=O)(=O)N(C)C)cc21 [Example 7, 6-[5-Dimethylsulfamoyl-2-oxo-1,2-dihydro-indol-(3Z)-ylidene]-2-methyl-1,4,5,6-tetrahydro-cyclopenta[b]pyrrole-3-carboxylic acid ethyl ester] | > 20000
12 | CCOC(=O)c1c(C)[nH]c2c1CC/C2=C1/C(=O)Nc2ccc(S(=O)(=O)CC)cc21 [Example 9, 6-[5-Ethanesulfonyl-2-oxo-1,2-dihydro-indol-(3Z)-ylidene]-2-methyl-1,4,5,6-tetrahydro-cyclopenta[b]pyrrole-3-carboxylic acid ethyl ester] | 530

Compounds with a lower IC50, results first:

Row | IC50 [nM] | SMILES
13 | 15 | CNS(=O)(=O)c1ccc2c(c1)/C(=C1\CCc3c1[nH]c(C)c3S(C)(=O)=O)C(=O)N2 [Example 16, 3-[3-Methanesulfonyl-2-methyl-4,5-dihydro-1H-cyclopenta[b]pyrrol-(6Z)-ylidene]-2-oxo-2,3-dihydro-1H-indole-5-sulfonic acid methylamide]
14 | 79 | CCOC(=O)c1c(C)[nH]c2c1CC/C2=C1/C(=O)Nc2ccccc21 [Example 1, 2-Methyl-6-[2-oxo-1,2-dihydro-indol-(3Z)-ylidene]-1,4,5,6-tetrahydro-cyclopenta[b]pyrrole-3-carboxylic acid ethyl ester]
15 | 15 | CNS(=O)(=O)c1ccc2c(c1)/C(=C1\CCc3c1[nH]c(C)c3C(=O)N1CCCC1CN1CCCC1)C(=O)N2 (stereo in doubt) [Example 13, 3-[2-Methyl-3-((R)-2-pyrrolidin-1-ylmethyl-pyrrolidine-1-carbonyl)-4,5-dihydro-1H-cyclopenta[b]pyrrol-(6Z)-ylidene]-2-oxo-2,3-dihydro-1H-indole-5-sulfonic acid methylamide]
16 | 25 | CNS(=O)(=O)c1ccc2c(c1)/C(=C1\CCc3cc(C)[nH]c31)C(=O)N2 [Example 4, 3-[2-Methyl-4,5-dihydro-1H-cyclopenta[b]pyrrol-(6Z)-ylidene]-2-oxo-2,3-dihydro-1H-indole-5-sulfonic acid methylamide]
17 | < 18 | CNS(=O)(=O)c1ccc2c(c1)/C(=C1\CCc3c1[nH]c(C)c3C(=O)NCC(O)CN1CCCC1)C(=O)N2 (centres unmarked) [Example 10, 2-Methyl-6-[5-methylsulfamoyl-2-oxo-1,2-dihydro-indol-(3Z)-ylidene]-1,4,5,6-tetrahydro-cyclopenta[b]pyrrole-3-carboxylic acid (2-hydroxy-3-pyrrolidin-1-yl-propyl)-amide]
18 | 80 | Cc1[nH]c2c(c1C(=O)N1CCC[C@H]1CN1CCCC1)CC/C2=C1/C(=O)Nc2ccc(F)cc21 [Example 18, 5-Fluoro-3-[2-methyl-3-((S)-2-pyrrolidin-1-ylmethyl-pyrrolidine-1-carbonyl)-4,5-dihydro-1H-cyclopenta[b]pyrrol-(6Z)-ylidene]-1,3-dihydro-indol-2-one]
19 | 40 | CNS(=O)(=O)c1ccc2c(c1)/C(=C1\CC(CC(=O)O)c3cc(OC)ccc31)C(=O)N2 (centres unmarked) [Example 17, {6-Methoxy-3-[5-methylsulfamoyl-2-oxo-1,2-dihydro-indol-(3Z)-ylidene]-indan-1-yl}-acetic acid]
20 | 100 | CCOC(=O)c1c(C)[nH]c2c1CC/C2=C1/C(=O)Nc2ccc(S(N)(=O)=O)cc21 [Example 14, 2-Methyl-6-[2-oxo-5-sulfamoyl-1,2-dihydro-indol-(3Z)-ylidene]-1,4,5,6-tetrahydro-cyclopenta[b]pyrrole-3-carboxylic acid ethyl ester]
21 | 17 | CNS(=O)(=O)c1ccc2c(c1)/C(=C1\CCc3c1[nH]c(C)c3C(=O)NCCN(C)C)C(=O)N2 [Example 12, 2-Methyl-6-[5-methylsulfamoyl-2-oxo-1,2-dihydro-indol-(3Z)-ylidene]-1,4,5,6-tetrahydro-cyclopenta[b]pyrrole-3-carboxylic acid (2-dimethylamino-ethyl)-amide]
22 | 20 | CNS(=O)(=O)c1ccc2c(c1)/C(=C1\CCc3c1[nH]c(C)c3C(=O)NCC(O)CNC1CC1)C(=O)N2 (centres unmarked) [Example 11, 2-Methyl-6-[5-methylsulfamoyl-2-oxo-1,2-dihydro-indol-(3Z)-ylidene]-1,4,5,6-tetrahydro-cyclopenta[b]pyrrole-3-carboxylic acid (3-cyclopropylamino-2-hydroxy-propyl)-amide]
23 | 22 | CNS(=O)(=O)c1ccc2c(c1)/C(=C1\CCc3c1[nH]c(C)c3C(=O)O)C(=O)N2 [Example 5, 2-Methyl-6-[5-methylsulfamoyl-2-oxo-1,2-dihydro-indol-(3Z)-ylidene]-1,4,5,6-tetrahydro-cyclopenta[b]pyrrole-3-carboxylic acid]
